Measurements from publication PMC10689823, “Discovery of a Drug-like, Natural Product-Inspired DCAF11 Ligand Chemotype” (Nature Communications, 2023).

Biological target: BRD4S-TagBFP reporter (Homo sapiens, UniProt O60885)
Test: FACS-based CRISPR/Cas9 BRD4 protein stability screen
Method: The virus containing supernatant was cleared of cellular debris by filtration through a 0.45-µm PES filter and used to transduce KBM7 BRD4-BFP reporter cells harboring a doxycycline inducible Cas9 allele at a multiplicity of infection (MOI) of 0.05 and 1,000-fold library representation. Library-transduced cells were selected with G418 (1 mg ml^−1, Gibco) for 14 days, expanded and Cas9 expression was induced with DOX (0.4 µg ml^−1, PanReac AppliChem).
Cells were washed with and stored in FACS buffer (PBS containing 5% FBS and 1 mM EDTA) at 4 °C overnight. The next day, cells were strained trough a 35 µm nylon mesh and sorted on a BD FACSAria™ Fusion (BD Biosciences) using a 85 µm nozzle. Aggregates, dead (ZombieNIR positive), Cas9-negative (GFP) and sgRNA library-negative (Thy1.1-APC) cells were excluded, and the remaining cells were sorted based on their BRD4-BFP and mCherry levels into BRD4^HIGH (10% of cells), BRD4^MID (30%) and BRD4^LOW (10%) fractions. For each sample, cells corresponding to at least 2,000-fold library representation were sorted per replicate.
Next-generation sequencing (NGS) libraries of sorted cell fractions were prepared as previously described[25]. In brief, genomic DNA was isolated by cell lysis (10 mM Tris-HCl, 150 mM NaCl, 10 mM EDTA, 0.1% SDS), proteinase K treatment (New England Biolabs) and DNAse-free RNAse digest (Thermo Fisher Scientific), followed by two rounds of phenol extraction and 2-propanol precipitation. Isolated genomic DNA was subjected to several freeze–thaw cycles before nested polymerase chain reaction (PCR) amplification of the sgRNA cassette.
Barcoded NGS libraries for each sorted population were generated using a two-step PCR protocol using AmpliTaq Gold (Invitrogen). The resulting PCR products were purified using Mag-Bind® TotalPure NGS beads (Omega Bio-tek) and amplified in a second PCR introducing the standard Illumina adapters. The final Illumina libraries were bead-purified, pooled and sequenced on a HiSeq 3500 platform (Illumina).
Screen analysis was performed as previously described[25]. Briefly, sequencing reads were quantified using the crispr-process-nf Nextflow workflow, available at https://github.com/ZuberLab/crispr-process-nf/tree/566f6d46bbcc2a3f49f51bbc96b9820f408ec4a3. For statistical analysis, we used the crispr-mageck-nf Nextflow workflow, available at https://github.com/ZuberLab/crispr-mageck-nf/tree/c75a90f670698bfa78bfd8be786d6e5d6d4fc455. To calculate gene-level enrichment, the sorted populations (BRD4^HIGH or BRD4^LOW) were compared to the BRD4^MID populations in MAGeCK (0.5.9)[46], using median normalized read counts.

Compound: Cc1sc2c(c1C)C(c1ccc(Cl)cc1)=N[C@@H](CC(=O)NCCOCCOCCOCCOCCNC(=O)COc1c(Br)cc(/C=C3\C(=O)Nc4ccc(Br)cc43)cc1Br)c1nnc(C)n1-2 [Compound 9]
- Low_lfc (Gene FBXL18, Mageck_Gene level): 0.05
- Low_logP (Gene FBXL18, Mageck_Gene level): 0.07
- High_lfc (Gene FBXL19, Mageck_Gene level): -0.41
- High_logP (Gene FBXL19, Mageck_Gene level): 0
- Low_lfc (Gene FBXL19, Mageck_Gene level): 0.11
- Low_logP (Gene FBXL19, Mageck_Gene level): 0.48
- High_lfc (Gene FBXL20, Mageck_Gene level): -0.06
- High_logP (Gene FBXL20, Mageck_Gene level): 0.09
- Low_lfc (Gene FBXL20, Mageck_Gene level): -0.11
- Low_logP (Gene FBXL20, Mageck_Gene level): 0.04
- High_lfc (Gene FBXL21, Mageck_Gene level): -0.29
- High_logP (Gene FBXL21, Mageck_Gene level): 0.09
- Low_lfc (Gene FBXL21, Mageck_Gene level): -0.29
- Low_logP (Gene FBXL21, Mageck_Gene level): 0.01
- High_lfc (Gene FBXL22, Mageck_Gene level): 0.14
- High_logP (Gene FBXL22, Mageck_Gene level): 0.24
- Low_lfc (Gene FBXL22, Mageck_Gene level): 0.36
- Low_logP (Gene FBXL22, Mageck_Gene level): 0.63
- High_lfc (Gene FBXO2, Mageck_Gene level): -0.09
- High_logP (Gene FBXO2, Mageck_Gene level): 0.03
- Low_lfc (Gene FBXO2, Mageck_Gene level): 0.42
- Low_logP (Gene FBXO2, Mageck_Gene level): 1.6
- High_lfc (Gene FBXO10, Mageck_Gene level): 0.22
- High_logP (Gene FBXO10, Mageck_Gene level): 0.52
- Low_lfc (Gene FBXO10, Mageck_Gene level): -0.18
- Low_logP (Gene FBXO10, Mageck_Gene level): 0.08
- High_lfc (Gene FBXO11, Mageck_Gene level): -0.38
- High_logP (Gene FBXO11, Mageck_Gene level): 0.01
- Low_lfc (Gene FBXO11, Mageck_Gene level): -0.03
- Low_logP (Gene FBXO11, Mageck_Gene level): 0.19
- High_lfc (Gene FBXO15, Mageck_Gene level): -0.34
- High_logP (Gene FBXO15, Mageck_Gene level): 0.01
- Low_lfc (Gene FBXO15, Mageck_Gene level): -0.22
- Low_logP (Gene FBXO15, Mageck_Gene level): 0.07
- High_lfc (Gene FBXO16, Mageck_Gene level): -0.28
- High_logP (Gene FBXO16, Mageck_Gene level): 0.17
- Low_lfc (Gene FBXO16, Mageck_Gene level): -0.34
- Low_logP (Gene FBXO16, Mageck_Gene level): 0.13
- High_lfc (Gene FBXO17, Mageck_Gene level): 0.05
- High_logP (Gene FBXO17, Mageck_Gene level): 0.04
- Low_lfc (Gene FBXO17, Mageck_Gene level): -0.01
- Low_logP (Gene FBXO17, Mageck_Gene level): 0.24
- High_lfc (Gene FBXO18, Mageck_Gene level): 0.01
- High_logP (Gene FBXO18, Mageck_Gene level): 0.35
- Low_lfc (Gene FBXO18, Mageck_Gene level): -0.24
- Low_logP (Gene FBXO18, Mageck_Gene level): 0.06
- High_lfc (Gene FBXO21, Mageck_Gene level): -0.09
- High_logP (Gene FBXO21, Mageck_Gene level): 0.15
- Low_lfc (Gene FBXO21, Mageck_Gene level): 0.26
- Low_logP (Gene FBXO21, Mageck_Gene level): 0.57
- High_lfc (Gene FBXO22, Mageck_Gene level): 0.33
- High_logP (Gene FBXO22, Mageck_Gene level): 0.56
- Low_lfc (Gene FBXO22, Mageck_Gene level): 0.08
- Low_logP (Gene FBXO22, Mageck_Gene level): 0.24
- High_lfc (Gene FBXO24, Mageck_Gene level): 0.01
- High_logP (Gene FBXO24, Mageck_Gene level): 0.17
- Low_lfc (Gene FBXO24, Mageck_Gene level): 0.28
- Low_logP (Gene FBXO24, Mageck_Gene level): 0.95
- High_lfc (Gene FBXO25, Mageck_Gene level): -0.09
- High_logP (Gene FBXO25, Mageck_Gene level): 0.13
- Low_lfc (Gene FBXO25, Mageck_Gene level): -0.06
- Low_logP (Gene FBXO25, Mageck_Gene level): 1.23
- High_lfc (Gene FBXO27, Mageck_Gene level): 0.07
- High_logP (Gene FBXO27, Mageck_Gene level): 0.26
- Low_lfc (Gene FBXO27, Mageck_Gene level): 0.17
- Low_logP (Gene FBXO27, Mageck_Gene level): 0.61
- High_lfc (Gene FBXO28, Mageck_Gene level): 0.25
- High_logP (Gene FBXO28, Mageck_Gene level): 0.91
- Low_lfc (Gene FBXO28, Mageck_Gene level): -0.03
- Low_logP (Gene FBXO28, Mageck_Gene level): 0.09
- High_lfc (Gene FBXO30, Mageck_Gene level): -0.15
- High_logP (Gene FBXO30, Mageck_Gene level): 0.06
- Low_lfc (Gene FBXO30, Mageck_Gene level): 0.12
- Low_logP (Gene FBXO30, Mageck_Gene level): 0.2
- High_lfc (Gene FBXO31, Mageck_Gene level): 0.02
- High_logP (Gene FBXO31, Mageck_Gene level): 0.11
- Low_lfc (Gene FBXO31, Mageck_Gene level): 0.28
- Low_logP (Gene FBXO31, Mageck_Gene level): 0.85
- High_lfc (Gene FBXO32, Mageck_Gene level): 0.06
- High_logP (Gene FBXO32, Mageck_Gene level): 0.14
- Low_lfc (Gene FBXO32, Mageck_Gene level): 0.27
- Low_logP (Gene FBXO32, Mageck_Gene level): 0.47
- High_lfc (Gene FBXO33, Mageck_Gene level): -0.49
- High_logP (Gene FBXO33, Mageck_Gene level): 0
- Low_lfc (Gene FBXO33, Mageck_Gene level): 0.19
- Low_logP (Gene FBXO33, Mageck_Gene level): 0.87
- High_lfc (Gene FBXO34, Mageck_Gene level): 0.22
- High_logP (Gene FBXO34, Mageck_Gene level): 0.61
- Low_lfc (Gene FBXO34, Mageck_Gene level): 0.1
- Low_logP (Gene FBXO34, Mageck_Gene level): 0.25
- High_lfc (Gene FBXO36, Mageck_Gene level): -0.13
- High_logP (Gene FBXO36, Mageck_Gene level): 0.23
- Low_lfc (Gene FBXO36, Mageck_Gene level): -0.41
- Low_logP (Gene FBXO36, Mageck_Gene level): 0.06
- High_lfc (Gene FBXO38, Mageck_Gene level): -0.17
- High_logP (Gene FBXO38, Mageck_Gene level): 0.01
- Low_lfc (Gene FBXO38, Mageck_Gene level): 0.33
- Low_logP (Gene FBXO38, Mageck_Gene level): 0.72
- High_lfc (Gene FBXO39, Mageck_Gene level): 0
- High_logP (Gene FBXO39, Mageck_Gene level): 0.18
- Low_lfc (Gene FBXO39, Mageck_Gene level): 0.15
- Low_logP (Gene FBXO39, Mageck_Gene level): 0.56
- CRL substrate receptor scoring as top hit (gene required for BRD4 degradation) (KBM7 BRD4-BFP reporter cells, 9 0.5 µM, 10 1 µM, dBET6 10 nM, 6 hours): DCAF11
- High_lfc (gene FBXO3): 0.05
- High_logP (gene FBXO3): 0.25
- Low_lfc (gene FBXO3): -0.2
- Low_logP (gene FBXO3): 0.19
- High_lfc (gene FBXO4): 0.12
- High_logP (gene FBXO4): 0.38
- Low_lfc (gene FBXO4): -0.12
- Low_logP (gene FBXO4): 0.07
- High_lfc (gene FBXO5): -0.26
- High_logP (gene FBXO5): 0.37
- Low_lfc (gene FBXO5): -0.71
- Low_logP (gene FBXO5): 0.02
- High_lfc (gene FBXO6): -0.04
- High_logP (gene FBXO6): 0.23
- Low_lfc (gene FBXO6): -0.19
- Low_logP (gene FBXO6): 0.36
- High_lfc (gene FBXO7): 0.07
- High_logP (gene FBXO7): 0.57
- Low_lfc (gene FBXO7): 0.01
- Low_logP (gene FBXO7): 0.76
- High_lfc (gene FBXO8): 0.03
- High_logP (gene FBXO8): 0.11
- Low_lfc (gene FBXO8): -0.03
- Low_logP (gene FBXO8): 0.11
- High_lfc (gene FBXO9): -0.02
- High_logP (gene FBXO9): 0.04
- Low_lfc (gene FBXO9): -0.02
- Low_logP (gene FBXO9): 0.52
- High_lfc (gene FBXO40): -0.13
- High_logP (gene FBXO40): 0.02
- Low_lfc (gene FBXO40): -0.27
- Low_logP (gene FBXO40): 0.13
- High_lfc (gene FBXO41): 0.17
- High_logP (gene FBXO41): 0.26
- Low_lfc (gene FBXO41): -0.12
- Low_logP (gene FBXO41): 0.01
- High_lfc (gene FBXO42): 0.01
- High_logP (gene FBXO42): 0.18
- Low_lfc (gene FBXO42): 0.28
- Low_logP (gene FBXO42): 1.35
- High_lfc (gene FBXO43): 0.05
- High_logP (gene FBXO43): 0.29
- Low_lfc (gene FBXO43): 0.06
- Low_logP (gene FBXO43): 0.07
- High_lfc (gene FBXO44): 0
- High_logP (gene FBXO44): 0.11
- Low_lfc (gene FBXO44): 0.17
- Low_logP (gene FBXO44): 0.24
- High_lfc (gene FBXO45): 0.31
- High_logP (gene FBXO45): 0.64
- Low_lfc (gene FBXO45): -0.13
- Low_logP (gene FBXO45): 0.16
- High_lfc (gene FBXO46): 0.28
- High_logP (gene FBXO46): 0.48
- Low_lfc (gene FBXO46): 0.32
- Low_logP (gene FBXO46): 1.6
- High_lfc (gene FBXO47): -0.53
- High_logP (gene FBXO47): 0.06
- Low_lfc (gene FBXO47): -0.35
- Low_logP (gene FBXO47): 0.03
- High_lfc (gene FBXO48): -0.41
- High_logP (gene FBXO48): 0.11
- Low_lfc (gene FBXO48): 0
- Low_logP (gene FBXO48): 0.25
- High_lfc (gene FBXW2): -0.12
- High_logP (gene FBXW2): 0.08
- Low_lfc (gene FBXW2): -0.53
- Low_logP (gene FBXW2): 0.05
- High_lfc (gene FBXW4): -0.31
- High_logP (gene FBXW4): 0.02
- Low_lfc (gene FBXW4): 0.22
- Low_logP (gene FBXW4): 0.62
- High_lfc (gene FBXW5): -0.14
- High_logP (gene FBXW5): 0.16
- Low_lfc (gene FBXW5): 0.15
- Low_logP (gene FBXW5): 0.39
- High_lfc (gene FBXW7): 0.41
- High_logP (gene FBXW7): 1.48
- Low_lfc (gene FBXW7): -0.31
- Low_logP (gene FBXW7): 0.05
- High_lfc (gene FBXW8): -0.18
- High_logP (gene FBXW8): 0.19
- Low_lfc (gene FBXW8): 0.19
- Low_logP (gene FBXW8): 0.52
- High_logP (gene FBXW9): 0
- High_lfc (gene FBXW10): -0.05
- High_logP (gene FBXW10): 0.14
- Low_lfc (gene FBXW10): -0.09
- Low_logP (gene FBXW10): 0.05
- High_lfc (gene FBXW11): 0.12
- High_logP (gene FBXW11): 0.29
- Low_lfc (gene FBXW11): -0.29
- Low_logP (gene FBXW11): 0.06
- High_lfc (gene FBXW12): -0.19
- High_logP (gene FBXW12): 0.02
- Low_lfc (gene FBXW12): -0.05
- Low_logP (gene FBXW12): 0.24
- High_logP (gene FEM1A): 0.43
